Some test systems named below: A549; ACHN; CAKI-1; CCRF-CEM; EKVX; HL-60; HOP-62; HOP-92; Malme-3M; NCI-H23; NCI-H522; OVCAR-8; SF-295; SR; SW-620; SK-OV-3; MCF7; MDA-MB-231.
What all share (assay): DTP human tumour cell line panel, 48 h

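Each compound was tested at five concentrations against cells in 96-well plates for 48 hours. At the GI50, growth is halved.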 Calls of active or inactive are those of the source. No stated cut-off is given here; in the data, active = GI50 up to about 1.1 µM and inactive = higher.

In the case of `NCCCN(CCCN)CCCNCc1c2ccccc2c(CNCCCN(CCCN)CCCN)c2ccccc12`, the GI50 (commonly the concentration that inhibits growth by half) in the assay with A549 was 24.3 µM (inactive); in the assay with ACHN it was 11.7 µM (inactive); in the assay on CAKI-1, 16.2 µM (inactive); in the assay on CCRF-CEM it was > 100 µM (inactive); with EKVX, 12.8 µM (inactive); with HL-60 it was 11.6 µM (inactive). The GI50 was 14.4 µM (inactive) with HOP-62; 24.8 µM (inactive) in the assay with HOP-92; 8.07 µM (inactive) in the assay with Malme-3M; 22.5 µM (inactive) in the assay on NCI-H23; 11.6 µM (inactive) in the assay on NCI-H522; 12.4 µM (inactive) in the assay on OVCAR-8. The GI50 with SF-295 is 12.3 µM (inactive); in the assay on SR, 35.2 µM (inactive); in the assay on SW-620 it was 13.3 µM (inactive).
On to `COc1cc(C2c3cc4c(cc3[C@@H](OCCN(C)C)C3COC(=O)[C@H]23)OCO4)cc(OC)c1O` (stereo not given in full), for which the GI50 in the assay on A549 was 0.0655 µM (active); in the assay with ACHN, 0.1 µM (active); with CAKI-1 it was 0.14 µM (active); with CCRF-CEM it was 0.0419 µM (active); in the assay on EKVX, 1.65 µM (inactive); in the assay with HL-60, 0.036 µM (active). For the same molecule, the GI50 in the assay with HOP-62 was 0.045 µM (active); with HOP-92, 0.196 µM (active); with Malme-3M, 0.388 µM (active); in the assay with NCI-H23 it was 0.237 µM (active); in the assay on NCI-H522 it was 0.111 µM (active); in the assay on OVCAR-8, 0.583 µM (active). For the same molecule, the GI50 with SF-295 is 0.145 µM (active); in the assay on SK-OV-3, 0.163 µM (active); in the assay on SR, < 0.01 µM (active); in the assay with SW-620 it was 0.579 µM (active).
In the case of `COc1c2c(cc3nc4ccccc4nc13)CCC(C(C)(C)O)C2` (stereo not given), the GI50 in the assay on A549 was > 100 µM (inactive); in the assay with ACHN it was > 100 µM (inactive); in the assay on CAKI-1, > 100 µM (inactive); in the assay with CCRF-CEM, 45.1 µM (inactive); in the assay with EKVX, > 100 µM (inactive); with HL-60 it was 26.4 µM (inactive). In addition, the GI50 in the assay with HOP-62 was > 100 µM (inactive); in the assay with HOP-92, 76.2 µM (inactive); in the assay with Malme-3M it was 65.6 µM (inactive); in the assay with NCI-H23, 56.8 µM (inactive); with NCI-H522 it was 31.8 µM (inactive); in the assay on OVCAR-8 it was > 100 µM (inactive). Further, the GI50 with SF-295 is > 100 µM (inactive); in the assay on SK-OV-3, > 100 µM (inactive); with SR, 73.6 µM (inactive); with SW-620 it was > 100 µM (inactive).
Consider `Cc1cc(C(=O)CBr)c(CN2C(=O)c3ccccc3C2=O)c(=O)n1C`, for which the GI50 in the assay with A549 was 18.8 µM (inactive); with ACHN it was 8.47 µM (inactive); with CAKI-1, 20.6 µM (inactive); in the assay with CCRF-CEM, 2.92 µM (inactive); with EKVX it was 2.21 µM (inactive); with HL-60 it was 5.09 µM (inactive). Besides, the GI50 in the assay with HOP-62 is 47.4 µM (inactive); in the assay on MCF7 it was 17.9 µM (inactive); in the assay with MDA-MB-231, 18.1 µM (inactive); in the assay on Malme-3M, 19.4 µM (inactive); in the assay on NCI-H23, 80.4 µM (inactive); in the assay on NCI-H522, 16.1 µM (inactive). Moreover, the GI50 with OVCAR-8 was 18.1 µM (inactive); in the assay on SF-295, 38.5 µM (inactive); with SK-OV-3, > 100 µM (inactive); with SR, 1.64 µM (inactive); with SW-620 it was 3.78 µM (inactive).
Consider `N/N=C(\N)Nc1cccc2ccccc12`, for which the GI50 in the assay with A549, in the assay with ACHN, with CCRF-CEM, in the assay with EKVX, with HL-60 and in the assay on HOP-62 was > 100 µM (inactive) in each case. In addition, the GI50 in the assay with HOP-92 is 27.9 µM (inactive); in the assay with MCF7, > 100 µM (inactive); in the assay on MDA-MB-231, > 100 µM (inactive); in the assay on Malme-3M, > 100 µM (inactive); in the assay on NCI-H23 it was > 100 µM (inactive); with OVCAR-8, > 100 µM (inactive). Also, the GI50 with SF-295, in the assay on SK-OV-3, in the assay on SR and in the assay on SW-620 was > 100 µM (inactive) throughout.
